The nature of this data set: Human HepG2 cell viability assay in 384 well format. The conditions noted are these: HepG2 cells, read-out: Inhibition. It counts as toxicity, cell-based. Also noted: dose 125 nL, time 70.5 hour; concentration not given beside the values.
Turning to `COc1ccc2c(c1)nc1n2[C@@H](CNC(=O)c2cccnc2)COC1`, the cytotoxicity at 70.5 h turned out to be 4.29%. As for `c1cc(-c2noc([C@@H]3CCCN3CC3CC3)n2)cc(N2CCCC2)n1`, the figure is -11.8%. As for `CC(C)CNC[C@H]1COCc2nc3cccnc3n21`, the figure is 10%.

`CS(=O)(=O)N1C[C@@H]2OCC(=O)N(CC3CCC3)[C@@H]2C1`: the cytotoxicity at 70.5 h is -6.88%.

With `O=C(N1CCOCC1)N1CCOC[C@H](Oc2ccc(C(F)(F)F)cc2)C1`, the cytotoxicity at 70.5 h is -5.44%.

Turning to `Cc1cccc(CN2CCN3C(=O)NC[C@H]3C2)n1`, the cytotoxicity at 70.5 h was -2.26%. The same measure for `FC(F)(F)c1ccccc1CN1CCOC[C@H](Oc2cccnc2)C1`: 1.03%; for `CS(=O)(=O)NC[C@H]1Cn2c(-c3ccccc3)cnc2CO1`: -7.36%; for `O=C1COC[C@H]([C@H](O)c2ccc(NC(=O)c3ccco3)cc2)N1`: -0.619%. As for `CC(C)(C)c1c[nH]c([C@@H]2COCCN2C2CCC2)n1`, the figure is -4.17%. `COC(=O)[C@@H]1Cc2c[nH]c3cccc(c23)[C@H](CC(C)C)N1`: the cytotoxicity at 70.5 h was -2.26%. On to `CC(C)NC(=O)N1C[C@@H](F)[C@@H](OCc2nc3ccccc3o2)C1`, for which the cytotoxicity at 70.5 h is -0.085%. The same measure for `Cc1ccc2nc3n(c2c1)[C@@H](CNCc1nccs1)COC3`: -5.06%. The same measure for `COc1ccc(CNC[C@H]2COCc3nc4cccnc4n32)cc1`: -4.57%. As for `CCN(CC)C[C@H]1CN2CC[C@H]1C[C@@H]2CNC(=O)c1ccco1`, the figure is -3.47%; as for `COCC(=O)NC[C@H]1C[C@@H]2CCN1C[C@@H]2CN1CCc2ccccc21`, -3.32%; as for `O=C(N[C@@H]1CNCCC[C@H]1O)c1ccc(OCCN2CCOCC2)cc1`, 1.5%. As for `O[C@@H]1C[C@@H](c2nc(-c3ccccc3)no2)N(Cc2cccnc2)C1`, the cytotoxicity at 70.5 h is -2.41%.

Consider `Cc1ccc(S(=O)(=O)Cc2noc([C@@H]3C[C@@H](O)CN3)n2)cc1`, for which the cytotoxicity at 70.5 h is -3.28%. The same measure for `COCCOc1ccc(-c2noc([C@@H]3CCCN3)n2)cn1`: -0.543%; for `Cc1ccccc1CN1CCC[C@H]1c1nc(-c2cncnc2N)no1`: -3.84%; for `CCN(CC)C1(Cc2cc(-c3ccccn3)on2)COC1`: -4.45%. As to `CC(C)(C)CNC1(Cc2cc(C(C)(C)O)on2)COC1`, the cytotoxicity at 70.5 h was -7.44%. On to `CC(=O)N1CCC(N2CCOC[C@H]2c2nc(-c3ccccc3)c[nH]2)CC1`, for which the cytotoxicity at 70.5 h is -2.43%.

Turning to `CS(=O)(=O)c1ccc(CNC[C@H]2COCc3nc4ccccc4n32)cc1`, the cytotoxicity at 70.5 h turned out to be 5.94%. As for `CC(=O)N1CCC(N2C[C@@H](F)[C@@H](OCc3nc4ncccc4[nH]3)C2)CC1`, the figure is -2.27%.

Turning to `CC(=O)NC[C@H]1COCc2nc3cc(S(C)(=O)=O)ccc3n21`, the cytotoxicity at 70.5 h is -0.348%. For `CS(=O)(=O)c1ccc2c(c1)nc1n2[C@@H](CNCc2cccnc2)COC1`, the cytotoxicity at 70.5 h was -6.64%.

In the case of `COc1ccc(CN2C[C@H]3CN(C(=O)c4ccno4)CCN3C2=O)cc1`, the cytotoxicity at 70.5 h is -7.88%. Take `CN1CCC(N[C@@H]2CO[C@H](CNC(=O)c3cccs3)[C@H]2O)CC1`: the cytotoxicity at 70.5 h was -6.9%. As for `O=S(=O)(c1ccc(Cl)cc1)N1CCOC[C@H](Oc2cnccn2)C1`, the figure is 0.0647%; as for `CO[C@H]1COCCN(C(=O)c2ccc(C(F)(F)F)cc2)C1`, -4.56%. The same measure for `O=C(NC1CCCC1)O[C@H]1COCCN(c2nc3ccccc3s2)C1`: 3.92%; for `CS(=O)(=O)c1ccc(O[C@H]2COCCN(C(=O)c3ccno3)C2)cc1`: -2.76%; for `O=C(c1ccno1)N1CCOC[C@H](Oc2ccc(C(F)(F)F)cc2)C1`: -0.658%. As for `COc1ccc(CN2CCOC[C@H](Oc3cccnc3)C2)cc1`, the figure is 4.36%.

In the case of `O=C(NC[C@H]1OC[C@@H](NC2CCC2)[C@@H]1O)c1cccs1`, the cytotoxicity at 70.5 h was -5.08%. In the case of `O=C(NC[C@H]1OC[C@@H](NC2CCCCC2)[C@@H]1O)c1cccs1`, the cytotoxicity at 70.5 h is -5.2%. The same measure for `O=C(NC[C@H]1OC[C@@H](NC2CCCC2)[C@@H]1O)C1CCCC1`: 10.4%; for `c1cc(-c2c[nH]c([C@@H]3COCCN3C3CCCCC3)n2)ccn1`: 0.143%; for `Cc1ccc(CN[C@@H]2CO[C@H](CNS(=O)(=O)c3ccccc3)[C@H]2O)cc1`: -0.953%. As to `c1ccc(CN2CCOC[C@H]2c2nc(-c3ccncc3)c[nH]2)nc1`, the cytotoxicity at 70.5 h came out at 1.25%. As for `CC(=O)N1CCC2(CC1)CN(C(=O)c1ccc3c(c1)OCCO3)C2`, the figure is 5.66%.

With `CCN1CC2(CCCCN2C(=O)c2ccn(C)n2)CC1=O` (configuration not stated), the cytotoxicity at 70.5 h amounted to 0.273%. As for `O=C1CC2(CCCCN2C(=O)c2ccoc2)CN1Cc1ccccc1` (configuration not stated), the cytotoxicity at 70.5 h was 3.41%. As for `CC(=O)N1CCC2(CCN(CC3CCCCC3)C2)CC1`, the figure is 3.48%; as for `CC(C)C(=O)N1CCC2(CC1)NC(=O)[C@H]1CN(Cc3cccnc3)C[C@H]12`, 4.61%. As for `NC(=O)N1C[C@@H]2CN(C(=O)c3ccco3)C[C@@H]2C1`, the figure is -7.36%; as for `CC(C)NC(=O)N1CCOC2(CCNCC2)C1`, -2.57%. As for `CC(C)C(=O)NC1COC2(CCN(C(=O)c3cccnc3)CC2)C1` (configuration not stated), the figure is -3.81%; as for `O=C1CCC2(CCCN(C(=O)c3ccco3)CC2)N1` (configuration not stated), -3.81%; as for `O=S(=O)(c1cccc(Cl)c1)N1C[C@@H]2CCN[C@@H]2C1`, -0.439%. Consider `O=C1CCCC2(CCN(C(=O)c3cnccn3)CC2)N1`, for which the cytotoxicity at 70.5 h is -4.91%. As for `CNC(=O)[C@@H](CC(C)C)N1CCC[C@H]1C(=O)N(C)Cc1ccccc1`, the figure is -7.93%. Consider `N#CC1(C(=O)NCC2CCC3(CCNCC3)O2)CC1` (configuration not stated), for which the cytotoxicity at 70.5 h is 20%. The same measure for `CNC(=O)[C@@H](C1CCCCC1)N1CCC[C@H]1C(=O)NCCN1CCCC1`: 3.4%; for `Cc1noc(C)c1CNC[C@@]1(COc2cccnc2)C[C@@H](O)[C@@H](O)C1`: -8.56%; for `COCc1nn(CC2CC2)c2c1CN(Cc1cccs1)CC2`: -8.23%. As for `CS(=O)(=O)N1CCC2(CC1)CN(CC1CC1)CC21CCNC1=O` (configuration not stated), the figure is -9.45%; as for `CC(C)CN1CCC2(CC1)CN(C(=O)C(C)C)C2`, -9.29%; as for `CCOCc1nn(CC2CC2)c2c1CN(Cc1ccco1)CC2`, -6.88%. As for `O=C1CCC2(CCCN(C(=O)c3ccccn3)CC2)N1` (configuration not stated), the figure is -1.45%; as for `CC(C)OCc1nn(CC2CC2)c2c1CN(Cc1ccco1)CC2`, -1.8%; as for `Cc1ccc(CN2CCC3(CCCC(=O)N3)CC2)s1`, -3.64%. For the compound `O=C1CCCC2(CCN(C(=O)c3ccccn3)CC2)N1`, the cytotoxicity at 70.5 h is -1.46%. With `CNC(=O)CN1C(=O)CCC12CCCN(Cc1cccc(F)c1)C2` (configuration not stated), the cytotoxicity at 70.5 h was -6.75%. Take `Cc1cc(CN2CC[C@H]3[C@H]2CCN3C)oc1C`: the cytotoxicity at 70.5 h is -5.26%.

The record behind these values is ChEMBL document CHEMBL3507680, “University of Dundee, Gates Library screen for HepG2 cell viability”.
